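Each compound was tested at five concentrations against cells in 96-well plates for 48 hours. Definition used: TGI = concentration required for complete inhibition of growth.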 *1 amine or outer side, *2 acyl side, *3 side chain or, on linkers, in order; H or OH if unused. Where a SMILES comes first, the peptide text is derived from it. [ ]: non-standard residue; d: D form. X32 = C[C@H](N[*:1])C(=O)C(C)(C)C(=O)[*:2]; Hmpa(2S,3S) = CC[C@H](C)[C@H](O)C(=O)O; NMeY = CN[C@@H](Cc1ccc(O)cc1)C(=O)O; NMeL = CN[C@@H](CC(C)C)C(=O)O; NMeV = CN[C@H](C(=O)O)C(C)C; βAla = NCCC(=O)O
What was measured:
Assay in all cases: NCI-60 cell line screen, 48 h
EKVX NSCLC = test system: EKVX NSCLC
MCF7 breast = test system: MCF7 breast
SK-OV-3 ovarian = test system: SK-OV-3 ovarian
SNB-75 CNS = test system: SNB-75 CNS
HT29 colon = test system: HT29 colon
LOX IMVI melanoma = test system: LOX IMVI melanoma
HOP-62 NSCLC = test system: HOP-62 NSCLC
MDA-MB-435 = test system: MDA-MB-435
MDA-N = test system: MDA-N
HCT-15 colon = test system: HCT-15 colon
PC-3 prostate = test system: PC-3 prostate

Row | SMILES | TGI (EKVX NSCLC) [µM] | TGI (MCF7 breast) [µM] | TGI (SK-OV-3 ovarian) [µM] | TGI (SNB-75 CNS) [µM] | TGI (HT29 colon) [µM] | TGI (LOX IMVI melanoma) [µM] | TGI (HOP-62 NSCLC) [µM] | TGI (MDA-MB-435) [µM] | TGI (MDA-N) [µM] | TGI (HCT-15 colon) [µM] | TGI (PC-3 prostate) [µM]
1 | CC[C@H](C)[C@@H]1OC(=O)CCNC(=O)[C@@H](C)NC(=O)C(C)(C)C(=O)[C@H](C)NC(=O)[C@H](Cc2ccc(OC)cc2)N(C)C(=O)[C@H](C(C)C)N(C)C(=O)CNC(=O)[C@H](CC(C)C)N(C)C(=O)CNC1=O (cyclo(G[NMeL]G[NMeV][NMeY](Me)[X32][dA][βAla][Hmpa(2S,3S)])) | 22.7 | > 50 | 4.11 | 3.52 | 10.2 | 10.7 | 10.6 | > 42.7 | > 31.8 | > 50 | > 31.5
2 | CC(=O)Nc1ccc(C2SCc3nc4ccccc4n32)cc1 (centres undefined) | > 100 | > 100 | > 100 | > 100 | > 100 | > 100 | > 100 | > 100 | > 100 | > 100 | > 100
3 | Cn1c2ccccc2c(=O)c2cccc(C(=O)NC(CCC(N)=O)C(=O)O)c21 (centres undefined) | > 100 | > 100 | > 100 | > 100 | > 100 | > 100 | > 100 | > 100 | > 100 | > 100 | > 100
4 | CCOC(=O)C(SCCO)C(C(=O)OCC)n1ccc(=O)[nH]c1=O (centres undefined) | > 100 | > 62.1 | > 100 | > 95.9 | 83.3 | > 43.8 | > 96.6 | > 58.5 | 97.8 | > 57.5 | > 100

Reference: PubChem BioAssay (NCI)
